# Assay results reported in patent publication US20170217946A1, “AMINO-SUBSTITUTED ISOXAZOLES” (Bayer Pharma Aktiengesellschaft, priority 2014, published 2017).
# Target: T1, human kinase Mps-1 (Homo sapiens, UniProt P33981)
# T1 construct: human full length recombinant Mps-1 kinase; GST (N); purchased Invitrogen, Karslruhe, Germany PV4071
# T1 sequence (P33981 1-857): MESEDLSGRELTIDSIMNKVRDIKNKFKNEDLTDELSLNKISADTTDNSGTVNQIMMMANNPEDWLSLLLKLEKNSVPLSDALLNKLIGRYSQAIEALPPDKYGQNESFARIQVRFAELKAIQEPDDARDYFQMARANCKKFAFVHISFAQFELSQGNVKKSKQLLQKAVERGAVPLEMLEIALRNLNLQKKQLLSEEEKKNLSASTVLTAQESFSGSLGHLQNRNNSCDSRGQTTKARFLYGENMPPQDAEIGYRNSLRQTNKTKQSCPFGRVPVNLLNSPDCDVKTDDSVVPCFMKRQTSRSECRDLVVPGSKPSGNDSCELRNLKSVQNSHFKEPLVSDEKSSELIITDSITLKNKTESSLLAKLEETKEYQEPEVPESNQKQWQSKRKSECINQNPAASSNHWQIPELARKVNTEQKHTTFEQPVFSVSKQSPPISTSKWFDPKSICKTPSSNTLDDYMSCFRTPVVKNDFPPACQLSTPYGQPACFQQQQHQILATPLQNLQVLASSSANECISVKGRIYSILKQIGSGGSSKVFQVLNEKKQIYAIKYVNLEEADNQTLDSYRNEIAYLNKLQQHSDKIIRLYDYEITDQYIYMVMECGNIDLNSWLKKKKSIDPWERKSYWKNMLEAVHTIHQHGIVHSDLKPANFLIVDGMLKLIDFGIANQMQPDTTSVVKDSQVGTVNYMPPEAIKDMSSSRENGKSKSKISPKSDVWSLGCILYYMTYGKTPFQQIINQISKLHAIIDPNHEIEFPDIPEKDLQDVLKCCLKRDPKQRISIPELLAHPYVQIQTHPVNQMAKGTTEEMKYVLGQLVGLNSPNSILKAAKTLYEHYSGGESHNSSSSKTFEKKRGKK
# Test: Mps-1 kinase assay (TR-FRET)
# Assay type: biochemical
# Settings: 10 μM ATP; read-out: Mps1 avg (IC50)
# Description: The human kinase Mps-1 phosphorylates a biotinylated substrate peptide. Detection of the phosphorylated product is achieved by time-resolved fluorescence resonance energy transfer (TR-FRET) from Europium-labelled anti-phospho-Serine/Threonine antibody as donor to streptavidin labelled with cross-linked allophycocyanin (SA-XLent) as acceptor. Compounds are tested for their inhibition of the kinase activity.
# N-terminally GST-tagged human full length recombinant Mps-1 kinase (purchased from Invitrogen, Karslruhe, Germany, cat. no PV4071) was used. […]
# The resulting mixture was incubated 1 h at 22° C. to allow the binding of the phosphorylated peptide to the anti-phospho(Ser/Thr)-Europium-antibody. Subsequently the amount of phosphorylated substrate was evaluated by measurement of the resonance energy transfer from the Europium-labelled anti-phospho(Ser/Thr) antibody to the Streptavidin-XLent. Therefore, the fluorescence emissions at 620 nm and 665 nm after excitation at 350 nm was measured in a Viewlux TR-FRET reader (PerkinElmer LAS, Rodgau-Jügesheinn, Germany). The “blank-corrected normalized ratio” (a Viewlux specific readout, similar to the traditional ratio of the emissions at 665 nm and at […], in which blank and Eu-donor crosstalk are subtracted from the 665 nm signal before the ratio is calculated) was taken as the measure for the amount of phosphorylated substrate. […]
compound,measurement,value
"Cc1noc(Nc2cnc(C(=O)NC3CCN(CC(F)F)CC3)cn2)c1C(=O)Nc1ccc(F)c(F)c1 [Example 1b, N-[1-(2,2-Difluoroethyl)piperidin-4-yl]-5-({4-[(3,4-difluorophenyl)carbamoyl]-3-methyl-1,2-oxazol-5-yl}amino)pyrazine-2-carboxamide]",IC50,16 µM
